Laboratory results taken from patent publication US20210052580A1 (ST IP Holding AG, priority 2018, published 2021).
≈ marks a conversion by molar mass, not a printed value. Read-outs that look alike come from different tables or passages of the source.

Assays:
[1] = system: primary human gingival epithelial cells (HGEPp); test: TACS MTT cell viability assay, H2O2-induced oxidative stress; type: cell-based
Procedure: Pooled primary HGEPps were propagated in CnT-Prime epithelial culture medium provided by CellnTec on 100 mm petri dishes coated with 30 mg/ml Type I rat tail collagen (BD Biosciences) diluted in Dulbecco's phosphate-buffered saline (DPBS). […] The cells were harvested when they reached 70-90% confluency as observed by light microscopy. For routine cultivation, the medium was changed every 3 days. For both the cell viability and ROS assays, the cells from passages 3-7 were seeded at 5×10 3, 2.5×10 4, 5×10^4 cells/cm 2 density to grow cell monolayers in 24-well flat-bottomed tissue culture plates and acclimated overnight at 37° C.
Preparation of Dosing Solutions • 1. Recrystallized oltipraz was received as a powder from Supportive Therapeutics and a 100 mM DMSO stock was prepared. Further dilutions were prepared in DMSO from the 100 mM DMSO stock and each DMSO dilution was then added into 10 mL of Dulbecco's phosphate-buffered saline to arrive at final concentrations of 10, 50, and 100 μM. • 2. The Normal (Control) group contained saline with the same percentage of DMSO as the treated group. • 3. All dosing solutions contained 0.3% of DMSO which is well below the maximum tolerated DMSO percent of 0.8% for HGEPp cells. • 4. Formulated oltipraz crystals and control powder were received as a powder and a 500 mM DMSO stock solution was prepared for each powder. • 5.
Cell Survival Assay (TACS MTT Kit) • 1. Plate cell concentration was selected to be 6.25×10^5/ml to yield an OD absorbance within the linear portion of the control curve. • 2. Once the HGEPp cells were cultured and ready on the microplate, the media was removed from all the wells and discarded. The cells were washed gently with DPBS 2-3 times and the last wash removed and discarded. • 3. Added 10 ul of MTT reagent to each well. • 4. Incubated the plate for 6 hours at 37° C. Viewed the cells to confirm the appearance of intracellular precipitate using an inverted microscope. • 5. Added 100 ul of Detergent Reagent to all wells, including the control wells taking care not to shake the plates • 6. Left the plate covered in the dark at room temperature overnight. • 7. Removed the plate cover and measured the absorbance of the wells, including the blanks at 570 nm. • 8. Determined the average values from triplicate readings after subtracting the average value for the blanks.
HGEPp cells were exposed to different concentrations of H2O2 for 4 h to examine H2O2-induced oxidative stress. The cells were exposed to 0-0.6 mM H2O2 for 4 h and cell viability was evaluated using the TACS MTT Cell Proliferation Assay Kit. The percentage of cell survival was determined using the ratio of the optical density (OD) of the test sample to the OD of the control×100%. […] The data is mean+/−SD of 3 experiments in 6 replicate wells.
Normal control cells were cultured in DPBS containing 0.3% DMSO. Positive Control (PC): oxidative stressed group cells after treatment with 0.3 mM H2O2 for 4 h. […] The percentage of cell survival was determined by the ratio of the optical density (OD) of the test samples to the OD of the control×100%.
Pooled primary HGEPp's were propagated in CnT-Prime epithelial culture medium provided by CellnTec on 100 mm petri dishes coated with 30 mg/ml Type I rat tail collagen (BD Biosciences) diluted in Dulbecco's phosphate-buffered saline (DPBS). […] The cells were harvested when they reached 70-90% confluency as observed by light microscopy. For routine cultivation, the medium was changed every 3 days.

[2] = system: primary human gingival epithelial cells (HGEPp); test: OxiSelect intracellular ROS assay, H2O2-treated cells; type: cell-based
Text: 2. measure the effect of recrystallized oltipraz and formulated oltipraz on hydroxyl, peroxyl and other reactive oxygen species within HGEPp cells, using Cell Biolabs' OxiSelect™ Intracellular ROS Assay Kit. This assay employs the cell-permeable fluorogenic probe 2′,7′-dichlorodihydrofluorescin diacetate (DCFH-DA) which diffuses into cells and is deacetylated by cellular esterases to a nonfluorescent DCFH which is then rapidly oxidized to highly fluorescent 2′,7′-dichlorodihydrofluorescein (DCF) by ROS.
Prepared and mixed all reagents thoroughly before use. […] Once the HGEPp cells were cultured and ready on a microplate, the media was removed from all the wells and discarded. Washed the cells gently with DPBS 2-3 times. Removed the last wash and discarded it. • 3. Added 100 μL of 1×DCFH-DA/media solution to the cells. […] Fluorescence was read on a Fluorescence Plate Reader after 1 hour. […] Transferred 150 μL of the mixture to a fresh 24-well plate for fluorescence measurements at 530 nm. […]
Intracellular ROS was measured using a Spectramax M3 microplate reader.
Prepared and mixed all reagents thoroughly before use. […] Once the HGEPp cells were cultured and ready on a microplate, the media was removed from all the wells and discarded. […] Transferred 150 μL of the mixture to a fresh 24-well plate for fluorescence measurements at 530 nm.
Intracellular ROS was measured using a Spectramax M3 microplate reader. […]

[3] = system: male Syrian Golden Hamsters
Procedure: Twenty-four (24) male Syrian Golden Hamsters were used in the study. Mucositis was induced by giving an acute radiation dose of 40 Gy directed to the left buccal cheek pouch on Day 0. Mucositis was evaluated clinically starting on Day 6 and continuing on alternate days until Day 28.
Mucositis was scored visually by comparison to a validated photographic scale, ranging from 0 for normal, to 5 for severe ulceration (clinical scoring). In descriptive terms, this scale is defined as described in Table 7 below: […]
A mucositis score of 3 or greater indicates ulcerative mucositis, a clinically significant threshold.
Statistical significance of observed differences was calculated using chi-squared analysis.
An analysis of the severity of mucositis was performed using the Mann-Whitney rank sum analysis to compare the visual mucositis scores for Groups 2 and 3 to the vehicle control group (Group 1) on each day of the analysis. In this analysis, 2 consecutive days of significant reduction in the mucositis score are generally required before it is regarded as clinically meaningful.
The significance of group differences observed in daily mucositis scores was determined using the Mann-Whitney rank sum test. This nonparametric statistic is appropriate for the visual mucositis scoring scale. The p-values for each calculation are shown. “x” denotes significant difference in mucositis scores. “y” denotes increase in comparison to vehicle Group (improvement). “z” denotes decrease.
“y” denotes an increase in comparison to vehicle Group, “z” denotes decrease (improvement).

physchem = settings: 20 °C, thermodynamic from solid
mouse cardiomyocytes = type: cell-based; settings: NAC 100 μM
Procedure: In vitro ischemic injury was induced in mouse neonatal primary cardiomyocyte culture by oxygen-glucose deprivation for 18 hours. Cardiomyocytes were incubated with two concentrations of the compounds during 4 hours prior to the OGD induction. The test compounds were also present during the OGD insult and 24 h-recovery period. NAC was used as positive control of cardioprotection. After treatments, cell viability was measured with WST-8 and ATP, and supernatants were collected to measure LDH for studying plasma membrane integrity. Cells were simultaneously loaded with two fluorescent dyes showing optical compatibility, and were then analyzed with BD Pathway 855 (Becton Dickinson). By using the technology of HCS, cell parameters associated with nuclear morphology and caspase 3/7 activation (indicative of pre-lethal cytotoxic effects and representative of different mechanism of toxicity) were measured at the single cells level, which allows high-throughput screening. Data were expressed as means±SD of three separate wells and individual comparisons were made with Student's test (SigmaPlot 9.0 program).
Primary cultures of cardiomyocytes were prepared from the hearts of Swiss mouse neonates P0-P2. Hearts were removed and enzymatically dissociated following instructions from Neonatal heart Dissociation Kit of Miltenyi Biotec. Then cardiomyocytes were isolated following also the instructions of Miltenyi biotec. Briefly, cells were isolated by depletion of non-target cells. Non-target cells (fibroblasts and endothelial cells) are directly magnetically labeled with a cocktail of monoclonal antibodies conjugated with MACS microbeads. The magnetically labeled non-target cells were depleted by retaining them within an MCS column in the magnetic fields of a MACS separator, while the unlabeled cardiomyocytes passed through the column. Then, cardiomyocytes were counted and plated on fibronectin-coated wells with cardiac myocyte complete medium (1% CMGS component, 1% penicillin/streplomycina and 5% FBS).
Cardiomyocytes from P0-P2 days mice were plated in fibronectin coated 96-well plates with a number of 30.000 cells per well. Cells were maintained in cardiac myocyte complete medium (Cardiac myocyte medium, growth factors, 5% FBS, 1% penicillin/streptomycin) for 1 day at 37° C. in a humidified 5% CO2 atmosphere. At day 2, cells were washed and treated with compounds in complete medium 4 h prior to being subjected to oxygen glucose deprivation for 18 hours at 37° C. The cultures were placed in an aerobic chamber (Billops-Rothenberg) and incubated with DMEM medium lacking glucose and growth factors, and aerated with an anaerobic gas mix (94.7% N2, 5% CO2, 0.3% O2) to remove residual oxygen. Control cells were kept in the original cardiac myocyte medium but under anaerobic conditions. At the end of the OGD insult the cells were removed from the anaerobic chamber, the OGD medium was replaced with cardiac myocyte medium containing glucose without growth factors, and the cells were incubated for additional 24 h. The test compounds were also present during the OGD insult and the recovery period. Some cells were treated as described above with NAC 100 μM as positive control of cardioprotection.
(§1) To determine the integrity of the plasma membrane, supernatants were collected 24 h after treatments and LDH assay was performed following manufacturer's instructions.
(§2) Cell number was determined by hoechst 33342 nucleic acid staining. This dye allows a sensitive cell number determination by fluorescence microscopy. Cells were stained with 5 μg/ml, washed 3 times and measured at 380 nm/460 nm Ex/Em.
Caspase 3/7 activation was determined using The CellEvent® Caspase-3n Green Detection Reagent which is intrinsically a non-fluorescent peptide that inhibits the ability of the dye to bind to DNA. However, after […] activation in apoptotic cells, the peptide is cleaved allowing the dye to bind to DNA producing a bright, fluorogenic response. […]

rat cortical neurons = type: cell-based; settings: MK801 10 μM
Procedure: The objective of the experiments in this Example was to explore the protective effects of three compounds in the neurotoxicity induced by oxygen glucose deprivation. A multiparametric cell-based protocol is used in this Example in order to determine the mechanisms of action. The assay was applied to “freshly isolated” rat cortical neurons cultured in 96-well-plates and exposed to the compounds at 100 μg/ml. Moreover, some cells were treated with the compounds in addition with atovaquone (100 μg/ml).
In vitro ischemic injury was induced in rat primary neuronal culture by oxygen-glucose deprivation for 2 hours. Neurons were incubated with the compounds during 1 hour eighteen hours prior to the OGD induction. MK801 10 μM was used as positive neuroprotection control. After the treatments, supernatants were collected for measuring extracellular LDH levels (plasma membrane integrity determination) and cells were simultaneously incubated with three optically compatible fluorescent dyes, and subsequently analyzed with BD Pathway 855 (Becton Dickinson). Cell parameters associated with nuclear morphology, mitochondrial damage and caspase 3/7 activation-indicative of prelethal cytotoxic effects and representative of different mechanism of toxicity-were measured by HCS at single cell level. Finally, cells were fixed and stained with beta III tubulin antibody for measuring the neurite outgrowth.
Primary cultures of cortical neurons were isolated from cerebral cortices of Sprague-Dawley rat foetuses at embryonic day 18. Brains were removed and after removing the meninges, the tissues were dissected under a binocular microscope. Neurons were enzymatically dispersed by trypsin 0.2% and DNAse […] digestion for 10 min at 37° C., plated in poly-L-lysine wells and incubated with B27 supplemented neurobasal medium.
Cortical neurons of 18 days old embryonic rats were plated in poly-l-lysine coated 96-well plates (30.000 cells per well). Cells were maintained in neurobasal medium supplemented with B-27 component for 5 days at 37° C. in a humidified 5% CO2 atmosphere. At day 5, cells were subjected to oxygen glucose deprivation (OGD) for 2 hours at 37° C. The cultures were placed in an aerobic chamber (Billops-Rothenberg) and incubated in neurobasal medium lacking glucose and B27 factor, and aerated with an anaerobic gas mixture (94.7% N2, 5% CO2, 0.3% O2) to remove residual oxygen. Control cultures were kept in the original neurobasal medium but were submitted to the anaerobic conditions. At the end of the OGD conditions, the cells were removed from the anaerobic chamber, the OGD medium was replaced with neurobasal medium containing glucose, and the cells were incubated for an additional 24 h. The test compounds were added to the neurons eighteen hours prior to the OGD induction and maintained for 1 h. Replicate cultures were treated as described above with MK801 as positive control of neuroprotection.
Compound neuroprotective potential was determined by HCS analysis, which included the following endpoints: plasma membrane integrity, cell viability, alterations of mitochondrial membrane potential, caspase 3/7 activation and neurite outgrowth.
as §1, §2
Mitochondrial activity was determined using TMRM, a lipophilic cationic fluorescent probe that freely crosses the plasma membrane and accumulates within mitochondria, depending on their membrane potential. Cells were stained with 50 nM tetramethyl rhodamine methyl ester-TMRM, washed 3 times and measured at 555 nm/645 nm Ex/Em. TMRM fluorescence intensity in cytosolic regions around the nucleus was registered. […]

[4] = Examples 10, 11, 12.5-800 μg/mL, procedure of Example 9
[5] = entire study duration, of 192 animal days

Compound: CN(C)C(=N)N=C(N)N [Metformin]
- effect on proliferation/survival of H2O2-induced oxidatively stressed HGEPp cells [1, 4]: little or no impact

Compound: OO [H2O2, hydrogen peroxide]
- reduction in cell number ([1]; 0.3 mM H2O2, 4 h): 48%

Compound: Cc1c(-c2cnccn2)ssc1=S [Neat oltipraz, 4-methyl-5-(pyrazin-2-yl)-3H-1,2-dithiole-3-thione]
- effect on ROS levels in H2O2 treated HGEPp cells ([2]; Example 7, 100 ug/ml and 200 ug/ml, 24 h pretreatment, P<0.05 versus PC): significantly reduced ROS levels
- day of peak mean mucositis score ([3]; 40 Gy Day 0, 5 mg/mL, 0.2 mL topical BID, Days −3 to 28): 16 days
- peak mean mucositis score ([3]; 40 Gy Day 0, 5 mg/mL, 0.2 mL topical to left cheek pouch BID, Days −3 to 28): 3.25±0.11
- Percent Ulceration by Day (Score ≥3) ([3]; Day 6): 0.0%
- Percent Ulceration by Day (Score ≥3) ([3]; Day 8): 0.0%
- Percent Ulceration by Day (Score ≥3) ([3]; Day 10): 0.0%
- Percent Ulceration by Day (Score ≥3) ([3]; Day 12): 50.0%
- Percent Ulceration by Day (Score ≥3) ([3]; Day 14): 100.0%
- Percent Ulceration by Day (Score ≥3) ([3]; Day 16): 100.0%
- Percent Ulceration by Day (Score ≥3) ([3]; Day 18): 100.0%
- Percent Ulceration by Day (Score ≥3) ([3]; Day 20): 100.0%
- Percent Ulceration by Day (Score ≥3) ([3]; Day 22): 100.0%
- Percent Ulceration by Day (Score ≥3) ([3]; Day 24): 50.0%
- Percent Ulceration by Day (Score ≥3) ([3]; Day 26): 25.0%
- Percent Ulceration by Day (Score ≥3) ([3]; Day 28): 25.0%
- % Days ≥3 ([3]; entire study duration): 54.17%
- Days <3 (animal days with mucositis score <3) [3, 5]: 88
- Days ≥3 (animal days with mucositis score ≥3) [3, 5]: 104
- effect on H2O2-induced decrease in HGEPp survival ([1]; Example 7, 50 to 800 μg/ml, 24 h pretreatment, then 0.3 mM H2O2 4 h): promoted cell proliferation and reduced H2O2-induced decrease in HGEPp survival
- solubility (physchem; 2% simulated intestinal fluid, fassgf or other biorelevant): 15.8 µg/mL (≈ 69.8 µM)
- solubility (physchem; water): 3.1 µg/mL (≈ 13.7 µM)

Compound: CC(=O)N[C@@H](CS)C(=O)O [NAC]
- normalization of OGD-induced LDH release (mouse cardiomyocytes): 26%
- prevention of OGD-induced apoptosis (caspase 3/7) (mouse cardiomyocytes): 31%
- protection against OGD-induced reduction in ATP levels (mouse cardiomyocytes): 21%
- prevention of OGD-induced mortality (cell number) (mouse cardiomyocytes; 24 h after exposure): 21%
- ATP score (mouse cardiomyocytes; Table 18): 1 (1 (variation 20-40%))
- CASPASE score (mouse cardiomyocytes; Table 18): 1 (1 (variation 20-40%))
- HOECHST score (cell number) (mouse cardiomyocytes; Table 18): 1 (1 (variation 20-40%))
- LDH score (mouse cardiomyocytes; Table 18): 1 (1 (variation 20-40%))
- Neuroprotection degree (mouse cardiomyocytes; Table 18): Moderate
- Total (sum of individual scores) (mouse cardiomyocytes; Table 18): 4

Compound: C[C@]12N[C@H](Cc3ccccc31)c1ccccc12 [MK801]
- normalization of plasma membrane integrity (LDH release) (rat cortical neurons): 33%
- prevention of OGD-induced apoptosis (caspase 3/7 activation) (rat cortical neurons; 24 h after OGD): 25%
- prevention of OGD-induced mortality (cell number, hoechst 33342) (rat cortical neurons; 24 h after OGD): 26%
- re-establishment of mitochondrial membrane potential (TMRM) (rat cortical neurons; 24 hours post-exposure): 13%
- re-establishment of neurite outgrowth affected by OGD (rat cortical neurons; average length, beta III tubulin): 94%
- CASPASE score (rat cortical neurons; Table 16): 1 (1 (variation 20-40%))
- HOECHST score (cell number) (rat cortical neurons; Table 16): 1 (1 (variation 20-40%))
- LDH score (rat cortical neurons; Table 16): 1 (1 (variation 20-40%))
- Neurite score (rat cortical neurons; Table 16): 3 (3 (variation 60-100%))
- Neuroprotection degree (rat cortical neurons; Table 16): moderate (moderate (5-7))
- TMRM score (rat cortical neurons; Table 16): 0 (0 (no neuroprotection or variation lower than 20%))
- Total (sum of individual scores) (rat cortical neurons; Table 16): 6

Compound: COc1ccc2cc3[n+](cc2c1OC)CCc1cc2c(cc1-3)OCO2 [Berberine]
- effect on proliferation/survival of H2O2-induced oxidatively stressed HGEPp cells [1, 4]: little or no impact

Compound: O=C1C(O)=C([C@H]2CC[C@H](c3ccc(Cl)cc3)CC2)C(=O)c2ccccc21 [Atovaquone, trans-2-[4-(4-chlorophenyl)cyclohexyl]-3-hydroxy-1,4-naphthalenedione]
- effect on ROS levels in H2O2 challenged HGEPp cells ([2]; Example 9, 50, 100, 200 μg/mL, 24 hr pretreatment): does not change ROS levels
- effect on proliferation/survival of H2O2-induced oxidatively stressed HGEPp cells ([1]; Example 9, all doses tested 12.5-800 μg/mL (each), 24 hr pretreatment, 0.3 mM H2O2 4 h): no impact
